Experimental data: PubChem BioAssay (NCI)
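Five compound concentrations were applied to cells in 96-well plates for 48 hours; endpoints were derived by simple linear interpolation of the resulting dose-response curve. The concentration for 50% growth inhibition is given as GI50. Definition used: TGI = concentration required for complete inhibition of growth.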

Experiments:
Experiment in all cases: growth of human tumour cells (NCI), 48 h
[1] = tested on: 786-0 renal
[2] = tested on: A498 renal
[3] = tested on: A549 NSCLC
[4] = tested on: ACHN renal
[5] = tested on: BT-549 breast
[6] = tested on: CAKI-1 renal
[7] = tested on: CCRF-CEM leukemia
[8] = tested on: COLO 205 colon
[9] = tested on: DU-145 prostate
[10] = tested on: EKVX NSCLC
[11] = tested on: HCC-2998 colon
[12] = tested on: HCT-116 colon
[13] = tested on: HCT-15 colon
[14] = tested on: HL-60(TB) leukemia
[15] = tested on: HOP-62 NSCLC
[16] = tested on: HOP-92 NSCLC
[17] = tested on: HS 578T breast
[18] = tested on: HT29 colon
[19] = tested on: IGROV1 ovarian
[20] = tested on: K-562 leukemia
[21] = tested on: KM12 colon
[22] = tested on: LOX IMVI melanoma
[23] = tested on: M14 melanoma
[24] = tested on: MALME-3M melanoma
[25] = tested on: MCF7 breast
[26] = tested on: MDA-MB-435
[27] = tested on: MDA-MB-468 breast
[28] = tested on: MOLT-4 leukemia
[29] = tested on: NCI-H226 lung
[30] = tested on: NCI-H23 lung
[31] = tested on: NCI-H460 lung
[32] = tested on: NCI-H522 lung
[33] = tested on: NCI/ADR-RES ovarian
[34] = tested on: OVCAR-3 ovarian
[35] = tested on: OVCAR-4 ovarian
[36] = tested on: OVCAR-5 ovarian
[37] = tested on: OVCAR-8 ovarian
[38] = tested on: PC-3 prostate
[39] = tested on: RPMI-8226 leukemia
[40] = tested on: RXF 393 renal
[41] = tested on: SF-268 CNS
[42] = tested on: SF-295 CNS
[43] = tested on: SF-539 CNS
[44] = tested on: SK-MEL-28 melanoma
[45] = tested on: SK-MEL-5 melanoma
[46] = tested on: SK-OV-3 ovarian
[47] = tested on: SN12C renal
[48] = tested on: SNB-19 CNS
[49] = tested on: SR leukemia
[50] = tested on: SW-620 colon
[51] = tested on: T-47D breast
[52] = tested on: TK-10 renal
[53] = tested on: U251 CNS
[54] = tested on: UACC-257 melanoma
[55] = tested on: UACC-62 melanoma

N#CC1=C(c2cccs2)Nc2c(c(-c3ccccc3)nn2-c2ccccc2)C12C(=O)Nc1ccc(Br)cc12 (stereo not given)
GI50 [1]: 15.7 µM | TGI [1]: 30.5 µM | GI50 [2]: 16.3 µM | TGI [2]: 30.7 µM | GI50 [3]: 10.2 µM | TGI [3]: 23 µM | GI50 [4]: 11.9 µM | TGI [4]: 24.8 µM | GI50 [5]: 5.22 µM | TGI [5]: 18.1 µM | GI50 [6]: 16.2 µM | TGI [6]: 37.5 µM | GI50 [7]: 7.51 µM | TGI [7]: 26.7 µM | GI50 [8]: 16 µM | TGI [8]: 29.9 µM | GI50 [9]: 20.7 µM | TGI [9]: 46.6 µM | GI50 [10]: 11.1 µM | TGI [10]: 27.4 µM | GI50 [11]: 13.9 µM | TGI [11]: 27 µM | GI50 [12]: 12.1 µM | TGI [12]: 24.7 µM | GI50 [13]: 5.34 µM | TGI [13]: 18.2 µM | GI50 [14]: 8.84 µM | TGI [14]: 26.8 µM | GI50 [15]: 15.4 µM | TGI [15]: 29.6 µM | GI50 [16]: 3.4 µM | TGI [16]: 15.4 µM | GI50 [17]: 12.7 µM | TGI [17]: 40.1 µM | GI50 [18]: 15.2 µM | TGI [18]: 29.1 µM | GI50 [19]: 14.2 µM | TGI [19]: 29.8 µM | GI50 [20]: 7.53 µM | TGI [20]: 23.6 µM | GI50 [21]: 7.67 µM | TGI [21]: 20.5 µM | GI50 [22]: 12.4 µM | TGI [22]: 24.9 µM | GI50 [23]: 14.4 µM | TGI [23]: 27.7 µM | GI50 [24]: 14.5 µM | TGI [24]: 27.8 µM | GI50 [25]: 13.6 µM | TGI [25]: 28.3 µM | GI50 [26]: 17 µM | TGI [26]: 33.7 µM | GI50 [27]: 12.9 µM | TGI [27]: 27 µM | GI50 [28]: 7.92 µM | TGI [28]: 24.1 µM | GI50 [29]: 15.4 µM | TGI [29]: 31.2 µM | GI50 [30]: 9.98 µM | TGI [30]: 21.8 µM | GI50 [31]: 11.2 µM | TGI [31]: 24.6 µM | GI50 [32]: 4.52 µM | TGI [32]: 17.1 µM | GI50 [33]: 13.3 µM | TGI [33]: 29.1 µM | GI50 [34]: 15 µM | TGI [34]: 29.4 µM | GI50 [35]: 14.2 µM | TGI [35]: 34.1 µM | GI50 [36]: 16.5 µM | TGI [36]: 33.1 µM | GI50 [37]: 15.6 µM | TGI [37]: 31 µM | GI50 [38]: 6.37 µM | TGI [38]: 22 µM | GI50 [39]: 10.2 µM | TGI [39]: 32.9 µM | GI50 [40]: 10.2 µM | TGI [40]: 22.2 µM | GI50 [41]: 8.58 µM | TGI [41]: 37.8 µM | GI50 [42]: 12.5 µM | TGI [42]: 25.6 µM | GI50 [43]: 15.2 µM | TGI [43]: 28.5 µM | GI50 [44]: 15.1 µM | TGI [44]: 28.4 µM | GI50 [45]: 16.6 µM | TGI [45]: 30.5 µM | GI50 [46]: 14.2 µM | TGI [46]: 28.6 µM | GI50 [47]: 13.7 µM | TGI [47]: 27.9 µM | GI50 [48]: 5.23 µM | TGI [48]: 27.9 µM | GI50 [49]: 7.93 µM | TGI [49]: 27.1 µM | GI50 [50]: 11.1 µM | TGI [50]: 26.5 µM | GI50 [51]: 17.7 µM | TGI [51]: 45 µM | GI50 [52]: 12.9 µM | TGI [52]: 36.7 µM | GI50 [53]: 5.64 µM | TGI [53]: 18.4 µM | GI50 [54]: 15.6 µM | TGI [54]: 30.9 µM | GI50 [55]: 11.4 µM | TGI [55]: 23.6 µM
